Measured values taken from patent publication US9920010B2, “CXCR7 receptor modulators” (IDORSIA PHARMACEUTICALS LTD, priority 2013, dated 2018).

These compounds were tested against T1, CXCR7 (Homo sapiens, UniProt P25106) (assay: PathHunter CHO-K1 CXCR7 b-arrestin recruitment assay (CXCR7 agonistic activity)). Settings: PathHunter CHO-K1 CXCR7 b-arrestin cell line.
T1 construct: host or cells: CHO-K1 (PathHunter CHO-K1 CXCR7 b-arrestin cell line, stably transfected)
Assay type: cell-based
How it was run: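 Stable CHO-K1 line with C-terminally ProLink-tagged CXCR7 and β-arrestin 2–EA fusion; β-arrestin recruitment restores β-gal activity, read by chemiluminescence after 1 h RT detection. Cells seeded 24 h, starved in OPTIMEM 3–4 h, exposed to compounds 90 min at 37 °C in HBSS/HEPES/BSA. Geometric-mean EC50 from repeated measurements.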

T1 sequence (P25106 whole entry): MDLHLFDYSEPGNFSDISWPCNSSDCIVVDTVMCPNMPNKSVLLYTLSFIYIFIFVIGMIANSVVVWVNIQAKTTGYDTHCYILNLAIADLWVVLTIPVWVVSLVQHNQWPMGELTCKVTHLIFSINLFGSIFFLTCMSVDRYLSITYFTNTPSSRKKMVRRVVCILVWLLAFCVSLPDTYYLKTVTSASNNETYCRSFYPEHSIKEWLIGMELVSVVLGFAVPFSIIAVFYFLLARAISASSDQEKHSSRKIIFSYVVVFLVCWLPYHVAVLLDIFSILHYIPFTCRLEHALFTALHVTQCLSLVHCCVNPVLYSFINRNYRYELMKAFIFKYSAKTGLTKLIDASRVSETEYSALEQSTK
T1 sequence (P32121 whole entry partner): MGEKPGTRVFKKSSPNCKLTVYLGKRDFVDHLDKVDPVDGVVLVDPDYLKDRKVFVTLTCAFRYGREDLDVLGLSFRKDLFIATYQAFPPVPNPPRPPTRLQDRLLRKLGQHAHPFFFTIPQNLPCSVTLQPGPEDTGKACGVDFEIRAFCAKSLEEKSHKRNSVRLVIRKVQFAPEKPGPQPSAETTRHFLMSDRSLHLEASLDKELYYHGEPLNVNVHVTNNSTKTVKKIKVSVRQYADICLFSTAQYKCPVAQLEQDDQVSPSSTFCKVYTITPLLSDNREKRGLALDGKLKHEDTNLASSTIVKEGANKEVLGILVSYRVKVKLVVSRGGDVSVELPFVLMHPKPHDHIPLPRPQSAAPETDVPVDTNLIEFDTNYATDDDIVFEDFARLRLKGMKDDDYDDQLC

Compound | EC50 [nM]
CN(C)CCN(CCc1ccc(C(F)(F)F)cc1)C(=O)CNc1cccc2c1CCN(CC1CC1)C2 [Example 56, 2-(2-Cyclopropylmethyl-1,2,3,4-tetrahydro-isoquinolin-5-ylamino)-N-(2-dimethylamino-ethyl)-N-[2-(4-trifluoromethyl-phenyl)-ethyl]-acetamide] | 70
CN(C)CCN(Cc1ncccc1Cl)C(=O)/C=C/c1cccc2c1CCN(C(=O)[C@H]1C[C@H]1F)C2 (racemic) [Example 330, rac-(E)-N-(3-Chloro-pyridin-2-ylmethyl)-N-(2-dimethylamino-ethyl)-3-[2-((1R*,2R*)-2-fluoro-cyclopropanecarbonyl)-1,2,3,4-tetrahydro-isoquinolin-5-yl]-acrylamide] | 11
O=C(CNc1cccc2c1CCN(CC1CC1)C2)N(Cc1ccccc1C(F)(F)F)C1CCNCC1 [compound 440, 2-(2-Cyclopropylmethyl-1,2,3,4-tetrahydro-isoquinolin-5-ylamino)-N-piperidin-4-yl-N-(2-trifluoromethyl-benzyl)-acetamide] | 15
CN(C)CCN(Cc1ncccc1Br)C(=O)CNc1cccc2c1CCN(CC1CC1)C2 [Example 236, N-(3-Bromo-pyridin-2-ylmethyl)-2-(2-cyclopropylmethyl-1,2,3,4-tetrahydro-isoquinolin-5-ylamino)-N-(2-dimethylamino-ethyl)-acetamide] | 3
CS(=O)(=O)NCCN(Cc1ccccc1C(F)(F)F)C(=O)CNc1cccc2c1CCN(CC1CC1)C2 [Example 230, 2-(2-Cyclopropylmethyl-1,2,3,4-tetrahydro-isoquinolin-5-ylamino)-N-(2-methanesulfonylamino-ethyl)-N-(2-trifluoromethyl-benzyl)-acetamide] | 81
CCN1CCc2cccc(NCC(=O)N(CCc3ccccc3C)CCN(C)C)c2C1 [compound 537] | 217
CN(C)CCN(Cc1ccccc1)C(=O)CNc1cccc2c1CCN(CC1CCCCC1)C2 [compound 124] | 52
CN(C)CCN(Cc1ccccc1C(F)(F)F)C(=O)CNc1cc(C(F)(F)F)cc2c1CCN(CC1CC1)C2 [Example 296, 2-(2-Cyclopropylmethyl-7-trifluoromethyl-1,2,3,4-tetrahydro-isoquinolin-5-ylamino)-N-(2-dimethylamino-ethyl)-N-(2-trifluoromethyl-benzyl)-acetamide] | 430
CCN1CCc2cccc(NCC(=O)N(CCN3CCCC3=O)Cc3ccccc3C(F)(F)F)c2C1 [compound 517] | 302
CN(CCN(Cc1ccccc1C(F)(F)F)C(=O)CNc1cccc2c1CCN(CC1CC1)C2)C(=O)OC(C)(C)C [Example 83, {2-[[2-(2-Cyclopropylmethyl-1,2,3,4-tetrahydro-isoquinolin-5-ylamino)-acetyl]-(2-trifluoromethyl-benzyl)-amino]-ethyl}-methyl-carbamic acid tert-butyl ester] | 88
CN(C)CCN(Cc1ccncn1)C(=O)CNc1cccc2c1CCN(CC1CC1)C2 [Example 255, 2-(2-Cyclopropylmethyl-1,2,3,4-tetrahydro-isoquinolin-5-ylamino)-N-(2-dimethylamino-ethyl)-N-pyrimidin-4-ylmethyl-acetamide] | 390
CN1CCC(N(Cc2ccccc2C(F)(F)F)C(=O)CCc2cccc3c2CCN(C(=O)OC(C)(C)C)C3)CC1 [Example 100, 5-{2-[(1-Methyl-piperidin-4-yl)-(2-trifluoromethyl-benzyl)-carbamoyl]-ethyl}-3,4-dihydro-1H-isoquinoline-2-carboxylic acid tert-butyl ester] | 376
CN1CCC(N(Cc2ccccc2C(F)(F)F)C(=O)/C=C/c2cccc3c2CCN(C(=O)OC(C)(C)C)C3)CC1 [Example 96, 5-{(E)-2-[(1-Methyl-piperidin-4-yl)-(2-trifluoromethyl-benzyl)-carbamoyl]-vinyl}-3,4-dihydro-1H-isoquinoline-2-carboxylic acid tert-butyl ester] | 249
CCN1CCc2c(/C=C/C(=O)N(CCN(C)C)Cc3ccccc3C(F)(F)F)cccc2C1 [compound 149, (E)-N-(2-Dimethylamino-ethyl)-3-(2-ethyl-1,2,3,4-tetrahydro-isoquinolin-5-yl)-N-(2-trifluoromethyl-benzyl)-acrylamide] | 0.6
CCNC(=O)N1CCc2c(cccc2NCC(=O)N(CCNC)Cc2ncccc2C(F)(F)F)C1 [compound 429, 5-({[(2-Methylamino-ethyl)-(3-trifluoromethyl-pyridin-2-ylmethyl)-carbamoyl]-methyl}-amino)-3,4-dihydro-1H-isoquinoline-2-carboxylic acid ethylamide] | 7
CCN1CCc2cccc(NCC(=O)N(CCN(C)C)Cc3ccc(OC)cc3)c2C1 [compound 499] | 245
CCOC(=O)CN(Cc1ccccc1)C(=O)/C=C/c1cccc2c1CCN(C(=O)OC(C)(C)C)C2 [Example 94, 5-[(E)-2-(Benzyl-ethoxycarbonylmethyl-carbamoyl)-vinyl]-3,4-dihydro-1H-isoquinoline-2-carboxylic acid tert-butyl ester] | 452
CC(C)CN1CCc2cccc(NCC(=O)N(CCN(C)C)Cc3ccccc3C(F)(F)F)c2C1 [compound 557, N-(2-Dimethylamino-ethyl)-2-(2-isobutyl-1,2,3,4-tetrahydro-isoquinolin-8-ylamino)-N-(2-trifluoromethyl-benzyl)-acetamide] | 5
CCN1CCc2cccc(NCC(=O)N(Cc3ccccc3C(F)(F)F)C3CCOCC3)c2C1 [compound 519] | 250
CN(C)CCN(Cc1ccccc1Cl)C(=O)CNc1cccc2c1CCN(CC1CC1)C2 [compound 134, N-(2-Chloro-benzyl)-2-(2-cyclopropylmethyl-1,2,3,4-tetrahydro-isoquinolin-5-ylamino)-N-(2-dimethylamino-ethyl)-acetamide] | 2
CCN1CCc2cccc(NCC(=O)N(CCN(C)C)Cc3ccccc3C(F)(F)F)c2C1 [compound 555, N-(2-Dimethylamino-ethyl)-2-(2-ethyl-1,2,3,4-tetrahydro-isoquinolin-8-ylamino)-N-(2-trifluoromethyl-benzyl)-acetamide] | 6
CN(C)CCN(Cc1ccccc1C(F)(F)F)C(=O)CNc1cccc2c1CCN(CC#N)C2 [Example 364, 2-(2-Cyanomethyl-1,2,3,4-tetrahydro-isoquinolin-5-ylamino)-N-(2-dimethylamino-ethyl)-N-(2-trifluoromethyl-benzyl)-acetamide] | 44
CCN1CCc2cccc(NCC(=O)N(CCN(C)C)Cc3cccc(Cl)c3)c2C1 [compound 501] | 54
CCOC(=O)N1CCc2c(cccc2NCC(=O)N(CCNC)Cc2ncccc2C(F)(F)F)C1 [compound 420, 5-({[(2-Methylamino-ethyl)-(3-trifluoromethyl-pyridin-2-ylmethyl)-carbamoyl]-methyl}-amino)-3,4-dihydro-1H-isoquinoline-2-carboxylic acid ethyl ester] | 21

Next, values leading:

EC50 [nM] | Compound
23 | CN(C)CCN(Cc1ccccc1C(F)(F)F)C(=O)CNc1cccc2c1CCN(CC(F)(F)F)C2 [Example 86, N-(2-Dimethylamino-ethyl)-2-[2-(2,2,2-trifluoro-ethyl)-1,2,3,4-tetrahydro-isoquinolin-5-ylamino]-N-(2-trifluoromethyl-benzyl)-acetamide]
98 | Cc1cccc(CN(C(=O)/C=C/c2cccc3c2CCN(CC2CC2)C3)C2CC2)c1C [compound 141]
43 | CCN1CCc2c(cccc2NCC(=O)N(CCN(C)C)Cc2ccccc2)C1 [compound 107, N-Benzyl-N-(2-dimethylamino-ethyl)-2-(2-ethyl-1,2,3,4-tetrahydro-isoquinolin-5-ylamino)-acetamide]
279 | COCCN1CCc2c(CCC(=O)N(CCC(C)(C)C)Cc3ncccc3C)cccc2C1 [Example 338, N-(3,3-Dimethyl-butyl)-3-[2-(2-methoxy-ethyl)-1,2,3,4-tetrahydro-isoquinolin-5-yl]-N-(3-methyl-pyridin-2-ylmethyl)-propionamide]
59 | CC(C)C(=O)N1CCc2cccc(NCC(=O)N(CCN(C)C)Cc3ccccc3)c2C1 [compound 191]
6 | CN(C)CCN(Cc1ccccc1C(F)(F)F)C(=O)CNc1cccc2c1CCN(CC1CCC1)C2 [Example 361, 2-(2-Cyclobutylmethyl-1,2,3,4-tetrahydro-isoquinolin-5-ylamino)-N-(2-dimethylamino-ethyl)-N-(2-trifluoromethyl-benzyl)-acetamide]
63 | CCC(=O)N1CCc2c(cccc2NCC(=O)N(CCN(C)C)Cc2ccccc2OC)C1 [Example 28, N-(2-Dimethylamino-ethyl)-N-(2-methoxy-benzyl)-2-(2-propionyl-1,2,3,4-tetrahydro-isoquinolin-5-ylamino)-acetamide]
15 | CCCC(=O)N1CCc2c(cccc2NCC(=O)N(CCNC)Cc2ncccc2C(F)(F)F)C1 [compound 411, 2-(2-Butyryl-1,2,3,4-tetrahydro-isoquinolin-5-ylamino)-N-(2-methylamino-ethyl)-N-(3-trifluoromethyl-pyridin-2-ylmethyl)-acetamide]
5 | COCCN1CCc2c(/C=C/C(=O)N(CCN(C)C)Cc3ccccc3C(F)(F)F)cccc2C1 [Example 317, (E)-N-(2-Dimethylamino-ethyl)-3-[2-(2-methoxy-ethyl)-1,2,3,4-tetrahydro-isoquinolin-5-yl]-N-(2-trifluoromethyl-benzyl)-acrylamide]
67 | CN(C)CCN(Cc1ccccc1C(F)(F)F)C(=O)CNc1cccc2c1CCN(c1ccccc1)C2 [Example 373, N-(2-Dimethylamino-ethyl)-2-(2-phenyl-1,2,3,4-tetrahydro-isoquinolin-5-ylamino)-N-(2-trifluoromethyl-benzyl)-acetamide]
24 | CCN1Cc2cccc(NCC(=O)N(CCN(C)C)Cc3ccccc3C(F)(F)F)c2CC1=O [Example 309, N-(2-Dimethylamino-ethyl)-2-(2-ethyl-3-oxo-1,2,3,4-tetrahydro-isoquinolin-5-ylamino)-N-(2-trifluoromethyl-benzyl)-acetamide]
